Experimental findings from publication PMC2225448 (Structure(London, England:1993), 2007) are described below.

The target in this assay is T1, SOCS4/ElonginBC (Homo sapiens, UniProt Q15369+Q15370+Q8WXH5).
T1 construct: Human SOCS4 (amino acids 274–437); made in house; host or cells: E. coli BL21(DE3)
As to the kind of experiment: ITC binding of phosphotyrosine peptides to SOCS4/ElonginBC. The settings on record: 50 mM HEPES pH 7.5, 150 mM NaCl, 1 mM DTT, 20°C; for KB × 10^5: association constant, ± curve fitting error.

The mark [1] stands for this setting: 0.3–0.4 mM peptide injected into 15 μM protein, single binding site model.

In general, Kd refers to the free concentration of one partner at which half of the binding sites on the other are occupied at equilibrium, for simple one-to-one binding.

Each structure is given as a SMILES string. Where only a bound is given, the exact number is not on record here.

T1 sequence (Q8WXH5 274-437): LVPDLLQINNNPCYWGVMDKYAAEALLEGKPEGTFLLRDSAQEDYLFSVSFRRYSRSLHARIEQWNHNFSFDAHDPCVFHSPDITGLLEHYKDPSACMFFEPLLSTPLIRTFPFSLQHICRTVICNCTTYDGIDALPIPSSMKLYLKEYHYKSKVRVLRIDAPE
T1 sequence (Q15369 17-112 partner limits assumed): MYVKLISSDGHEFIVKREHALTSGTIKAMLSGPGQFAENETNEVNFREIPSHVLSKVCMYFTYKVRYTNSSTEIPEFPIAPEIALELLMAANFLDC
T1 sequence (Q15370 whole entry partner, the tested form may be a part): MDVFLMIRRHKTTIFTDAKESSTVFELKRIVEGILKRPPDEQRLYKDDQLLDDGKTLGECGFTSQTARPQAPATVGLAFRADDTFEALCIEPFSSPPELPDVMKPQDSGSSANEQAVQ
Text: Blank titrations were subtracted from binding data, and data were processed by using ORIGIN software provided with the instrument.

For `CC[C@H](C)[C@H](NC(=O)[C@@H](NC(=O)[C@H](Cc1ccc(OP(=O)(O)O)cc1)NC(=O)[C@H](CCC(=O)O)NC(=O)[C@H](Cc1ccccc1)NC(=O)[C@H](CO)NC(=O)[C@H](C)N)[C@@H](C)O)C(=O)N[C@@H](CC(C)C)C(=O)N[C@@H](CC(=O)O)C(=O)N1CCC[C@H]1C(=O)N[C@@H](CO)C(=O)O` [EpoR pY402], the “KB × 10^5” value is listed as 1.30 ± 0.16 10^5 M^−1.

For the molecule `CC(C)[C@H](NC(=O)[C@H](CCCCN)NC(=O)[C@H](Cc1ccc(O)cc1)NC(=O)[C@H](Cc1ccc(OP(=O)(O)O)cc1)NC(=O)[C@H](CCC(=O)O)NC(=O)[C@H](CCCCN)NC(=O)[C@H](CC(=O)O)NC(=O)[C@@H](N)CCC(N)=O)C(=O)N[C@@H](CCCCN)C(=O)N[C@@H](CCC(=O)O)C(=O)N1CCC[C@H]1C(=O)NCC(=O)O` [JAK2 pY1007], the “KB × 10^5” value is on record as 3.43 ± 0.25 10^5 M^−1. Also, under setting [1], the KD result is reported as “low micromolar” and the Kd was less than 3 µM.

For `CC[C@H](C)[C@H](NC(=O)[C@H](Cc1ccc(O)cc1)NC(=O)[C@@H](NC(=O)[C@H](Cc1ccc(OP(=O)(O)O)cc1)NC(=O)[C@H](CC(N)=O)NC(=O)[C@H](CC(N)=O)NC(=O)CNC(=O)[C@@H](N)CC(N)=O)C(C)C)C(=O)N[C@@H](CC(=O)O)C(=O)N1CCC[C@H]1C(=O)N[C@H](C(=O)O)[C@@H](C)O` [KIT pY568], the “KB × 10^5” value is recorded as 3.43 ± 0.24 10^5 M^−1.
